This note sets out measurements from US20240109900A1, “AZABICYCLIC SHP2 INHIBITORS” (IRBM S.P.A., priority 2021, published 2024).

Broadly, the IC50 is the concentration needed to halve the response being measured.

For assay [1], the system named is ERK phosphorylation in KYSE-520 cells. Briefly: Phospho-ERK cellular assay. The assay is classed as cell-based. The conditions noted are these: KYSE-520 cells, 2 h at 37° C., phospho-ERK1/2 (Thr202/Tyr204) TR-FRET, read-out: PERK IC50. The method in brief: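 TR-FRET read-out of ERK1/2 Thr202/Tyr204 phosphorylation was taken after overnight antibody incubation at room temperature. Before that, KYSE-520 cells were treated 2 h at 37 °C with compound dilutions and lysed 30 min. Percent inhibition relative to vehicle and cell-free wells was fitted four-parametrically to give IC50.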
(In general: TR-FRET usually uses a lanthanide donor and a delayed reading to cut background.)

Assay [2] concerns the target SHP-2 enzyme (Met1-Leu525) (Homo sapiens (Human), UniProt Q06124). Briefly: SHP2 inhibition enzymatic assay. The assay is classed as biochemical. The conditions noted are these: 0.5 nM SHP-2 activated by 500 nM IRS1 peptide, 75 μM DiFMUP substrate; read-out: SHP2wt-IC50. The method in brief:
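SHP-2 (Met1-Leu525), 0.5 nM, activated with 500 nM IRS1 bis-phosphopeptide, preincubated 30 min with compounds in HEPES pH 7.2 buffer with 5 mM DTT. 75 μM DiFMUP added for 30 min at room temperature, stopped with bpV; fluorescence read. IC50 from four-parameter logistic fit of % inhibition.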

Where two headings read alike, the source gives them in different places. Where only a bound is given, the exact number is not on record here.

Chain of SHP-2 enzyme (Met1-Leu525) (Q06124 1-525): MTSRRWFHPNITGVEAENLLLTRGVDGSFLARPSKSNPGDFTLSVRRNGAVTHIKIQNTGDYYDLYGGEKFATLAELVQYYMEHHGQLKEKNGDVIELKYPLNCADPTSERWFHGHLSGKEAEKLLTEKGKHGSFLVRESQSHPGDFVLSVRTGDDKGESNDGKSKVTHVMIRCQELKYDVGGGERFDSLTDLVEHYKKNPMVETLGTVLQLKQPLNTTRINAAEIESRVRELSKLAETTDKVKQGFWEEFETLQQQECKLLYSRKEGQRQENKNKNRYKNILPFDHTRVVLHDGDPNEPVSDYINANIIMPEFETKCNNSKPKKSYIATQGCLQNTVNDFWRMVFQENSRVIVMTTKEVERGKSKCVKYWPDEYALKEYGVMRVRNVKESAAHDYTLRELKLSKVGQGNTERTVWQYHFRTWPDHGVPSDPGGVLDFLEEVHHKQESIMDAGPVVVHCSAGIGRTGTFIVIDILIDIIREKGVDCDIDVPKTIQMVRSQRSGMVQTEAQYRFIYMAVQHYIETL

For `NC[C@]1(c2ccccc2F)[C@@H]2CCN(c3cnc4c(-c5cnc6ccccn56)n[nH]c4n3)C[C@@H]21` [Example 224, ((1S,6R,7R)-7-(2-fluorophenyl)-3-(3-(imidazo[1,2-a]pyridin-3-yl)-1H-pyrazolo[3,4-b]pyrazin-6-yl)-3-azabicyclo[4.1.0]heptan-7-yl)methanamine], the IC50 in assay [1] (Homo sapiens, KYSE-520, 2 h) is below 1000 nM; in assay [2], below 500 nM.

Take `NC[C@]1(c2ccccc2F)[C@@H]2CCN(c3cnc4c(-c5ccc6ncnn6c5)n[nH]c4n3)C[C@@H]21` [Example 327, ((1S,6R,7R)-3-(3-([1,2,4]triazolo[1,5-a]pyridin-6-yl)-1H-pyrazolo[3,4-b]pyrazin-6-yl)-7-(2-fluorophenyl)-3-azabicyclo[4.1.0]heptan-7-yl)methanamine]: the IC50 is below 1000 nM in assay [1] (Homo sapiens, KYSE-520, 2 h) and below 500 nM in assay [2].

On to `CC(C)(O)c1ccc(-c2n[nH]c3nc(N4CC[C@@H]5[C@H](C4)[C@@]5(CN)c4ccccc4F)cnc23)c2cccnc12` [Example 137, 2-(5-(6-((1S,6R,7R)-7-(aminomethyl)-7-(2-fluorophenyl)-3-azabicyclo[4.1.0]heptan-3-yl)-1H-pyrazolo[3,4-b]pyrazin-3-yl)quinolin-8-yl)propan-2-ol], for which the IC50 in assay [1] (Homo sapiens, KYSE-520, 2 h) is below 1000 nM; in assay [2], below 500 nM.

As for `Cc1cc(C2(CN)C3CCN(c4cnc5c(-c6ccc(C#N)c7ncccc67)n[nH]c5n4)CC32)no1` (centres unmarked) [Example 32, 5-(6-(7-(aminomethyl)-7-(5-methylisoxazol-3-yl)-3-azabicyclo[4.1.0]heptan-3-yl)-1H-pyrazolo[3,4-b]pyrazin-3-yl)quinoline-8-carbonitrile], the IC50 was below 1000 nM in assay [1] (Homo sapiens, KYSE-520, 2 h) and below 500 nM in assay [2].

Regarding `Cc1nc(N2CC[C@@H]3[C@H](C2)[C@@]3(CN)c2cc(F)ccc2F)cc(=O)n1-c1cccc(Cl)c1Cl` [Example 412, 6-((1S,6R,7R)-7-(aminomethyl)-7-(2,5-difluorophenyl)-3-azabicyclo[4.1.0]heptan-3-yl)-3-(2,3-dichlorophenyl)-2-methylpyrimidin-4(3H)-one], the IC50 is below 1000 nM in assay [1] and below 500 nM in assay [2].

Consider `CC(=O)Oc1c(F)cc(-c2n[nH]c3nc(N4CC[C@@H]5[C@H](C4)[C@@]5(CN)c4ccccc4F)cnc23)cc1F` [Example 359, 4-(6-((1S,6R,7R)-7-(aminomethyl)-7-(2-fluorophenyl)-3-azabicyclo[4.1.0]heptan-3-yl)-1H-pyrazolo[3,4-b]pyrazin-3-yl)-2,6-difluorophenyl acetate], for which the IC50 is below 1000 nM in assay [1] (Homo sapiens, KYSE-520, 2 h) and below 500 nM in assay [2].

For the molecule `Cn1ncc2ccc(-c3n[nH]c4nc(N5CC[C@@H]6[C@H](C5)[C@@]6(CN)c5ccccc5F)cnc34)c(Cl)c21` [Example 364, ((1S,6R,7R)-3-(3-(7-chloro-1-methyl-1H-indazol-6-yl)-1H-pyrazolo[3,4-b]pyrazin-6-yl)-7-(2-fluorophenyl)-3-azabicyclo[4.1.0]heptan-7-yl)methanamine], the IC50 was below 1000 nM in assay [1] (Homo sapiens, KYSE-520, 2 h) and below 500 nM in assay [2].

Turning to `NC[C@]1(c2ccccc2F)[C@@H]2CCN(c3cnc(Sc4ccnc(N)c4Cl)cn3)C[C@@H]21` [Example 401, 4-((5-((1S,6R,7R)-7-(aminomethyl)-7-(2-fluorophenyl)-3-azabicyclo[4.1.0]heptan-3-yl)pyrazin-2-yl)thio)-3-chloropyridin-2-amine], the IC50 was below 1000 nM in assay [1] (Homo sapiens, KYSE-520, 2 h) and below 500 nM in assay [2].

As for `NC[C@]1(c2ccccc2F)[C@@H]2CCN(c3cnc4c(-c5ccc(C(N)=O)c(Cl)c5Cl)n[nH]c4n3)C[C@@H]21` [Example 241, 4-(6-((1S,6R,7R)-7-(aminomethyl)-7-(2-fluorophenyl)-3-azabicyclo[4.1.0]heptan-3-yl)-1H-pyrazolo[3,4-b]pyrazin-3-yl)-2,3-dichlorobenzamide], the IC50 in assay [1] (Homo sapiens, KYSE-520, 2 h) is below 1000 nM; in assay [2], below 500 nM.

Take `Cc1nccc(-c2ccc3nc(N4CC[C@@H]5[C@H](C4)[C@@]5(CN)c4ccccc4F)cnc3n2)c1F` [Example 529]: the IC50 was below 1000 nM in assay [1] (Homo sapiens, KYSE-520, 2 h) and below 500 nM in assay [2].

With `NC[C@]1(c2ccccc2F)[C@@H]2CCN(c3cnc4c(-c5ccc(C(N)=O)cc5F)n[nH]c4n3)C[C@@H]21` [Example 367, 4-(6-((1S,6R,7R)-7-(aminomethyl)-7-(2-fluorophenyl)-3-azabicyclo[4.1.0]heptan-3-yl)-1H-pyrazolo[3,4-b]pyrazin-3-yl)-3-fluorobenzamide], the IC50 in assay [1] (Homo sapiens, KYSE-520, 2 h) is below 1000 nM; in assay [2], below 500 nM.

Regarding `NC[C@]1(c2ccccc2F)[C@@H]2CCN(c3cnc4c(-c5cccc6c5CCC(=O)N6)n[nH]c4n3)C[C@@H]21` [Example 293, 5-(6-((1S,6R,7R)-7-(aminomethyl)-7-(2-fluorophenyl)-3-azabicyclo[4.1.0]heptan-3-yl)-1H-pyrazolo[3,4-b]pyrazin-3-yl)-3,4-dihydroquinolin-2(1H)-one], the IC50 in assay [1] (Homo sapiens, KYSE-520, 2 h) was below 1000 nM; in assay [2] it was below 500 nM.

Consider `NCC1(c2ccccn2)C2CCN(c3cnc4c(-c5cccc(Cl)c5Cl)n[nH]c4n3)CC21` (centres unmarked) [Example 82, (3-(3-(2,3-dichlorophenyl)-1H-pyrazolo[3,4-b]pyrazin-6-yl)-7-(pyridin-2-yl)-3-azabicyclo [4.1.0]heptan-7-yl)methanamine], for which the 50% inhibitory concentration (IC50) in assay [1] (Homo sapiens, KYSE-520, 2 h) is below 1000 nM; in assay [2], below 500 nM.

Take `Cc1cc(-c2n[nH]c3nc(N4CC[C@@H]5[C@H](C4)[C@@]5(CN)c4ccccc4F)cnc23)cc2cccnc12` [Example 173, ((1S,6R,7R)-7-(2-fluorophenyl)-3-(3-(8-methylquinolin-6-yl)-1H-pyrazolo[3,4-b]pyrazin-6-yl)-3-azabicyclo[4.1.0]heptan-7-yl)methanamine]: the IC50 in assay [1] (Homo sapiens, KYSE-520, 2 h) was below 1000 nM; in assay [2], below 500 nM.

`Cc1nc([C@@]2(CN)[C@@H]3CN(c4cnc5c(-c6ccc7nn(C)cc7c6Cl)n[nH]c5n4)C[C@@H]32)cs1` [Example 485, ((1R,5S,6r)-3-(3-(4-chloro-2-methyl-2H-indazol-5-yl)-1H-pyrazolo[3,4-b]pyrazin-6-yl)-6-(2-methylthiazol-4-yl)-3-azabicyclo[3.1.0]hexan-6-yl)methanamine]: the IC50 in assay [1] (Homo sapiens, KYSE-520, 2 h) was below 1000 nM; in assay [2] it was below 500 nM.

Turning to `Cc1c(-c2n[nH]c3nc(N4CC[C@@H]5[C@H](C4)[C@@]5(CN)c4ncccc4F)cnc23)ccc2nn(C)cc12` [Example 179, ((1S,6R,7S)-3-(3-(2,4-dimethyl-2H-indazol-5-yl)-1H-pyrazolo[3,4-b]pyrazin-6-yl)-7-(3-fluoropyridin-2-yl)-3-azabicyclo[4.1.0]heptan-7-yl)methanamine], the IC50 in assay [1] (Homo sapiens, KYSE-520, 2 h) was below 1000 nM; in assay [2], below 500 nM.

`Cn1cc(-c2n[nH]c3nc(N4CC[C@@H]5[C@H](C4)[C@@]5(CN)c4ccccc4F)cnc23)cn1` [Example 347, ((1S,6R,7R)-7-(2-fluorophenyl)-3-(3-(1-methyl-1H-pyrazol-4-yl)-1H-pyrazolo[3,4-b]pyrazin-6-yl)-3-azabicyclo[4.1.0]heptan-7-yl)methanamine]: the IC50 was above 5000 nM in assay [1] (Homo sapiens, KYSE-520, 2 h) and below 500 nM in assay [2].

With `NC[C@]1(c2ccccc2F)[C@@H]2CCN(c3cnc(Sc4ccnc(N)c4Cl)c(N)n3)C[C@@H]21` [Example 384, 3-((2-amino-3-chloropyridin-4-yl)thio)-6-((1S,6R,7R)-7-(aminomethyl)-7-(2-fluorophenyl)-3-azabicyclo[4.1.0]heptan-3-yl)pyrazin-2-amine], the IC50 was below 1000 nM in assay [1] (Homo sapiens, KYSE-520, 2 h) and below 500 nM in assay [2].

In the case of `Cc1nccc(Sc2ncc(N3CC[C@@H]4[C@H](C3)[C@@]4(CN)c3cc(F)ccc3F)nc2N)c1F` [Example 431, 6-((1S,6R,7R)-7-(aminomethyl)-7-(2,5-difluorophenyl)-3-azabicyclo[4.1.0]heptan-3-yl)-3-((3-fluoro-2-methylpyridin-4-yl)thio)pyrazin-2-amine], the IC50 in assay [1] (Homo sapiens, KYSE-520, 2 h) was below 1000 nM; in assay [2], below 500 nM.

For the molecule `CN1C(=O)C(F)(F)c2c1ccc(-c1n[nH]c3nc(N4CC[C@@H]5[C@H](C4)[C@@]5(CN)c4ccccc4F)cnc13)c2Cl` [Example 362, 5-(6-((1S,6R,7R)-7-(aminomethyl)-7-(2-fluorophenyl)-3-azabicyclo[4.1.0]heptan-3-yl)-1H-pyrazolo[3,4-b]pyrazin-3-yl)-4-chloro-3,3-difluoro-1-methylindolin-2-one], the IC50 in assay [1] (Homo sapiens, KYSE-520, 2 h) is below 1000 nM; in assay [2], below 500 nM.

`NC[C@]1(c2ccccc2F)[C@@H]2CCN(c3cnc4c(-c5ccc(-c6ncco6)cc5Cl)n[nH]c4n3)C[C@@H]21` [Example 264, ((1S,6R,7R)-3-(3-(2-chloro-4-(oxazol-2-yl)phenyl)-1H-pyrazolo[3,4-b]pyrazin-6-yl)-7-(2-fluorophenyl)-3-azabicyclo[4.1.0]heptan-7-yl)methanamine]: the IC50 in assay [1] (Homo sapiens, KYSE-520, 2 h) is below 1000 nM; in assay [2], below 500 nM.

`Cc1cc([C@@]2(CN)[C@@H]3CCN(c4cnc5c(-c6ccc(C(F)F)c7ncccc67)n[nH]c5n4)C[C@@H]32)no1` [Example 133, ((1S,6R,7S)-3-(3-(8-(difluoromethyl)quinolin-5-yl)-1H-pyrazolo[3,4-b]pyrazin-6-yl)-7-(5-methylisoxazol-3-yl)-3-azabicyclo[4.1.0]heptan-7-yl)methanamine]: the IC50 was below 1000 nM in assay [1] (Homo sapiens, KYSE-520, 2 h) and below 500 nM in assay [2].
